# Patent publication US8940739B2, “Compound of a reverse-turn mimetic and a production method and use therefor” (JW Pharmaceutical Corporation, priority 2010, dated 2015)
# Key:
# [1] = target: cDNA-expressed human hepatic CYP3A4 (Homo sapiens (Human), UniProt P08684); experiment: Measurement of CYP (IC50 of P450 CYP3A4), BFC substrate; assay type: in vitro ADME; conditions: 20 minutes
# In short: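 cDNA-expressed human CYP3A4 supersomes in 0.1M potassium phosphate pH 7.4 with 8.3 mM MgCl2, 1.67 mM EDTA and 0.25 mM NADPH; compounds in acetonitrile (<1% final). Reaction started with 30 µM BFC, 20 min at 37. 7-Hydroxy-4-trifluoromethyl-coumarin read by fluorescence (ex 409/em 530 nm).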
# [2] = system: MV-4-11 (human, Acute Myeloid Leukemia cell line) cells; experiment: Cell growth inhibition assay, GI50 of MV-4-11; assay type: cell-based; conditions: Homo sapiens, MV4-11, 72 h, MV-4-11 cells
# In short: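 GI50 derived from 490 nm absorbance using CellTiter 96 Aqueous One reagent, with compound-free medium providing the background. Human AML MV-4-11 cells, seeded at 5×10^4 per well in IMDM/10% FBS, incubated 72 h at 37 °C with duplicate serial dilutions of test compound.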
# [3] = MLM, hepatic metabolic stability; assay type: in vitro ADME; conditions: mouse hepatic microsome, amount at 30 minutes compared with 0 minutes
# Experimental: For the sake of retaining efficacy of novel drugs and preventing side-effects, hepatic metabolic stability is regarded as very important. Hepatic metabolic stability is typically determined using microsome or S9. In the present test, a microsome having CYP450 as a main component, which plays a great role in metabolism, was used to evaluate the metabolic stability.
# This assay was performed in a 200 l volume in a 13 ml glass tube using mouse hepatic microsome whose activity was measured.
# The compounds of Examples 1 to 5 were dissolved in DMSO (dimethyl sulfoxide) to prepare a 25 mM stock solution, which was then diluted with 50% acetonitrile and used in the test. A potassium phosphate buffer (pH 7.4, final concentration 0.1M), MgCl2 (final concentration 0.1M), a diluted inventive compound stock solution (final concentration 1 mM), and a mouse microsome (final concentration 5 mg/ml) were added to the glass tube. The reaction was initiated by the addition of a cofactor NADPH (final concentration 12.5 mM) after pre-incubation at 37 for 3 minutes. The reaction was carried out at 37 for 10 minutes and 30 minutes, and then terminated with 1000 μl of acetonitrile, and the remaining inventive compound was extracted. The centrifugation was conducted at 3000 rpm for 10 minutes, after which the supernatant was dried and dissolved again in 150 μl of 50% acetonitrile and quantitatively analyzed by HPLC. 0 minutes and 30 minutes after reaction, the amounts of the compounds of the present invention were compared thus evaluating the extent of metabolic stability.
# Chain of cDNA-expressed human hepatic CYP3A4 (P08684 whole entry): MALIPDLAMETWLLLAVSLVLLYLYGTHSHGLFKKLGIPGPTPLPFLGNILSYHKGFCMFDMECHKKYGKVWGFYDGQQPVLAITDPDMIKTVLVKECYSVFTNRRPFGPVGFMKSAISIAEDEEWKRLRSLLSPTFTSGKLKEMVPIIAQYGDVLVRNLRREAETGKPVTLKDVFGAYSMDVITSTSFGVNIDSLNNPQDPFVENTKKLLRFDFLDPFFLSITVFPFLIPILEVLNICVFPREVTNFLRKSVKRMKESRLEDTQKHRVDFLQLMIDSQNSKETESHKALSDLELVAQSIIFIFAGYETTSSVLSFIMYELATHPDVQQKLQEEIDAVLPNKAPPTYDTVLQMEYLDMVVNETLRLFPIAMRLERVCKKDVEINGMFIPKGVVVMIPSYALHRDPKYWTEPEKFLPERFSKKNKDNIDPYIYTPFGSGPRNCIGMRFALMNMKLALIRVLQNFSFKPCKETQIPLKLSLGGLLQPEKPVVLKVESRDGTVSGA
Compound,IC50 [1],GI50 [2],MLM (%) [3]
C=CCN1CC(=O)N2[C@@H](Cc3ccc(O)cc3)C(=O)N(Cc3cccc4c(-c5ccc(NC(=O)NCc6ccccc6)nc5)cn(C)c34)C[C@@H]2N1C(=O)NCc1ccccc1 [Compound D-93],20400 nM,16.1 nM,68.5%
C=CCN1CC(=O)N2[C@@H](Cc3ccc(O)cc3)C(=O)N(Cc3cccc4c(C(=O)N5CCC(NC(=O)c6ccc(N(C)C)cc6)CC5)cn(C)c34)C[C@@H]2N1C(=O)NCc1ccccc1 [Compound E-59],> 25000 nM,,58.5%
C=CCN1CC(=O)N2[C@@H](Cc3ccc(O)cc3)C(=O)N(Cc3cccc4c(-c5ccc(C(=O)NC6CCC(NC(=O)OC(C)(C)C)CC6)cc5)cn(C)c34)C[C@@H]2N1C(=O)NCc1ccccc1 (stereo partly drawn) [Compound D-31],> 25000 nM,1.5 nM,107%
C=CCN1CC(=O)N2[C@@H](Cc3ccc(O)cc3)C(=O)N(Cc3cccc4c(C(=O)N5CCC(N6CCN(C)CC6)CC5)cn(C)c34)C[C@@H]2N1C(=O)NCc1ccccc1 [Compound E-19],> 25000 nM,,73.4%
C=CCN1CC(=O)N2[C@@H](Cc3ccc(O)cc3)C(=O)N(Cc3cccc4c(-c5ccc(C(=O)Nc6ccc(N7CCN(C(C)=O)CC7)cc6)cc5)cn(C)c34)C[C@@H]2N1C(=O)NCc1ccccc1 [Compound D-10],> 25000 nM,1.3 nM,88%
C=CCN1CC(=O)N2[C@@H](Cc3ccc(O)cc3)C(=O)N(Cc3cccc4c(C(=O)N5CC(N6CCN(C)CC6)C5)cn(C)c34)C[C@@H]2N1C(=O)NCc1ccccc1 [Compound E-71],> 25000 nM,,67.2%
C=CCN1CC(=O)N2[C@@H](Cc3ccc(O)cc3)C(=O)N(Cc3cccc4c(C(=O)N5CCN(CCCN(C)C)CC5)cn(C)c34)C[C@@H]2N1C(=O)NCc1ccccc1 [Compound E-13],> 25000 nM,,89.1%
C=CCN1CC(=O)N2[C@@H](Cc3ccc(O)cc3)C(=O)N(Cc3cccc4c(C(=O)N5CCN(CC6CCNCC6)CC5)cn(C)c34)C[C@@H]2N1C(=O)NCc1ccccc1 [Compound E-23],8170 nM,,73.8%
C=CCN1CC(=O)N2[C@@H](Cc3ccc(O)cc3)C(=O)N(Cc3cccc4c(-c5ccc(C(=O)NN6CCN(C)CC6)cc5)cn(C)c34)C[C@@H]2N1C(=O)NCc1ccccc1 [Compound D-45],2510 nM,1.9 nM,49.4%
"C=CCN1CC(=O)N2[C@@H](Cc3ccc(O)cc3)C(=O)N(Cc3cccc4c(-c5ccc(NC(=O)Nc6ccc(OC)nc6)cc5)cn(C)c34)C[C@@H]2N1C(=O)NCc1ccccc1 [Compound B, (6S,9aS)-2-allyl-N-benzyl-6-(4-hydroxybenzyl)-8-((3-(4-(3-(6-methoxypyridin-3-yl)ureido)phenyl)-1-methyl-1H-indol-7-yl)methyl)-4,7-dioxooctahydro-1H-pyrazino[2,1-c][1,2,4]-triazine-1-carboxamide]",> 25000 nM,6.5 nM,65%
C=CCN1CC(=O)N2[C@@H](Cc3ccc(O)cc3)C(=O)N(Cc3cccc4c(C(=O)NCCCC(=O)O)cn(C)c34)C[C@@H]2N1C(=O)NCc1ccccc1 [Compound F-24],> 25000 nM,,84.2%
C=CCN1CC(=O)N2[C@@H](Cc3ccc(O)cc3)C(=O)N(Cc3cccc4c(-c5ccc(NC(=O)Nc6ccccc6)cc5)cn(C)c34)C[C@@H]2N1C(=O)NCc1ccccc1 [Compound D-73],> 25000 nM,14.4 nM,73.4%
C=CCN1CC(=O)N2[C@@H](Cc3ccc(O)cc3)C(=O)N(Cc3cccc4c(-c5ccc(C(=O)Nc6cccc(OC(C)C)c6)cc5)cn(C)c34)C[C@@H]2N1C(=O)NCc1ccccc1 [Compound D-26],13700 nM,19 nM,
C=CCN1CC(=O)N2[C@@H](Cc3ccc(O)cc3)C(=O)N(Cc3cccc4c(C(=O)N5CCN(CCN6CCOCC6)CC5)cn(C)c34)C[C@@H]2N1C(=O)NCc1ccccc1 [Compound E-25],6090 nM,20.4 nM,
C=CCN1CC(=O)N2[C@@H](Cc3ccc(O)cc3)C(=O)N(Cc3cccc4c(-c5ccc(NC(=O)c6ccc(N(C)C)cc6)cc5)cn(C)c34)C[C@@H]2N1C(=O)NCc1ccccc1 [Compound D-51],> 25000 nM,5.4 nM,
C=CCN1CC(=O)N2[C@@H](Cc3ccc(O)cc3)C(=O)N(Cc3cccc4c(C(=O)NC5CCN(C(=O)OC(C)(C)C)CC5)cn(C)c34)C[C@@H]2N1C(=O)NCc1ccccc1 [Compound F-61],5650 nM,1.6 nM,
C=CCN1CC(=O)N2[C@@H](Cc3ccc(O)cc3)C(=O)N(Cc3cccc4c(C(=O)N5CCN(C(C)C)CC5)cn(C)c34)C[C@@H]2N1C(=O)NCc1ccccc1 [Compound E-7],2240 nM,11.3 nM,
C=CCN1CC(=O)N2[C@@H](Cc3ccc(O)cc3)C(=O)N(Cc3cccc4c(-c5ccc(NC(=O)Nc6ncccn6)cc5)cn(C)c34)C[C@@H]2N1C(=O)NCc1ccccc1 [Compound D-82],8520 nM,16.8 nM,
C=CCN1CC(=O)N2[C@@H](Cc3ccc(O)cc3)C(=O)N(Cc3cccc4c(-c5ccc(C(=O)NNC(C)(C)C)cc5)cn(C)c34)C[C@@H]2N1C(=O)NCc1ccccc1 [Compound D-34],3410 nM,1.2 nM,
C=CCN1CC(=O)N2[C@@H](Cc3ccc(O)cc3)C(=O)N(Cc3cccc4c(-c5ccc(NC(=O)NCCc6ccccc6)cc5)cn(C)c34)C[C@@H]2N1C(=O)NCc1ccccc1 [Compound D-75],10500 nM,17 nM,
C=CCN1CC(=O)N2[C@@H](Cc3ccc(O)cc3)C(=O)N(Cc3cccc4c(-c5ccc(NC(=O)N6CCN(S(C)(=O)=O)CC6)nc5)cn(C)c34)C[C@@H]2N1C(=O)NCc1ccccc1 [Compound D-97],6400 nM,2.2 nM,

# Results, then the compound that gave them:
IC50 [1],GI50 [2],MLM (%) [3],Compound
> 25000 nM,,74%,C=CCN1CC(=O)N2[C@@H](Cc3ccc(O)cc3)C(=O)N(Cc3cccc4c(-c5ccc(NC(=S)NC(=O)c6ccccc6)nc5)cn(C)c34)C[C@@H]2N1C(=O)NCc1ccccc1 [Compound H-5]
21100 nM,1.3 nM,36%,C=CCN1CC(=O)N2C(CN(Cc3cccc4c(C(=O)Nc5ccc(N6CCOCC6)nc5)cn(C)c34)C(=O)[C@@H]2Cc2ccc(O)cc2)N1C(=O)NCc1ccccc1 (stereo partly drawn) [Compound G-36]
23700 nM,,85.1%,C=CCN1CC(=O)N2C(Cc3ccc(O)cc3)C(=O)N(Cc3cccc4c(C(=O)Nc5ccc(N6CCN(c7ccc(C(F)(F)F)cc7)CC6)nc5)cn(C)c34)CC2N1C(=O)NCc1ccccc1 (stereo not drawn) [Compound G-58]
12200 nM,1.4 nM,34.9%,C=CCN1CC(=O)N2[C@@H](Cc3ccc(O)cc3)C(=O)N(Cc3cccc4c(C(=O)Nc5ccc(N6CCCCC6)nc5)cn(C)c34)C[C@@H]2N1C(=O)NCc1ccccc1 [Compound G-35]
> 25000 nM,4.9 nM,61.9%,C=CCN1CC(=O)N2C(Cc3ccc(O)cc3)C(=O)N(Cc3cccc4c(C(=O)Nc5ccc(N6CCN(c7ccccc7OC)CC6)nc5)cn(C)c34)CC2N1C(=O)NCc1ccccc1 (stereo not drawn) [Compound G-59]
21500 nM,6.5 nM,52.8%,C=CCN1CC(=O)N2C(Cc3ccc(O)cc3)C(=O)N(Cc3cccc4c(C(=O)Nc5ccc(N6CCN(Cc7ccc(OC)cc7)CC6)nc5)cn(C)c34)CC2N1C(=O)NCc1ccccc1 (stereo not drawn) [Compound G-60]
> 25000 nM,15 nM,66.8%,C=CCN1CC(=O)N2[C@@H](Cc3ccc(O)cc3)C(=O)N(Cc3cccc4c(-c5ccc(NC(=S)NC(=O)OCC)nc5)cn(C)c34)C[C@@H]2N1C(=O)NCc1ccccc1 [Compound H-4]
3970 nM,1.3 nM,,C=CCN1CC(=O)N2C(Cc3ccc(O)cc3)C(=O)N(Cc3cccc4c(C(=O)Nc5ccc(N6CCC(N7CCCC7)CC6)nc5)cn(C)c34)CC2N1C(=O)NCc1ccccc1 (stereo not drawn) [Compound G-51]
10100 nM,9.9 nM,,C=CCN1CC(=O)N2[C@@H](Cc3ccc(O)cc3)C(=O)N(Cc3cccc4c(C(=O)Nc5ccc(OCCN(C)C)nc5)cn(C)c34)C[C@@H]2N1C(=O)NCc1ccccc1 [Compound G-12]
11200 nM,1.3 nM,,C=CCN1CC(=O)N2[C@@H](Cc3ccc(O)cc3)C(=O)N(Cc3cccc4c(C(=O)Nc5ccc(N6CCCN(C)CC6)nc5)cn(C)c34)C[C@@H]2N1C(=O)NCc1ccccc1 [Compound G-67]
6120 nM,1.3 nM,,C=CCN1CC(=O)N2C(CN(Cc3cccc4c(C(=O)Nc5ccc(N6CCN(C(C)C)CC6)nc5)cn(C)c34)C(=O)[C@@H]2Cc2ccc(O)cc2)N1C(=O)NCc1ccccc1 (stereo partly drawn) [Compound G-46]
